Measurements published in patent US9811635B2, “Immune and oxygen system measuring and drug screening method and apparatus” (priority 2010, dated 2017).

Columns and labels:
human blood = experiment: Immunogram Analyzer run: effect of borate and aspirin on ROX/BOX of human blood; assay type: cell-based; settings: for effect on ROX and BOX: compared to saline runs on a patient's blood; for BOX / ROX / ROXNO / ROXO2: human blood aged 5 days at room temperature, 0.10 ml blood, 0.9 ml saline
Source text: (§1) First, a testing apparatus having a sample well 10 or cell with a sensor or probe 20 and a reader/processor 30 is provided. […] The testing probes are inserted into the cell and the testing apparatus is calibrated so that the reading for levels of signaling materials is at zero. For example, a compound A, such as signaling material-free saline solution can be added to cell E derive an instrument baseline reading free of signaling material. Alternatively, a gas that is free of signaling material can be bubbled into the cell.
Once a baseline showing a zero reading for signaling materials is established, an amount of blood D is added to cell E. This amount of blood D can be a small quantity, such as between about 0.02 mL and about 0.10 mL, of freshly drawn or frozen blood from a test individual or patient. For convenience, a 3.00 mL sample of anticoagulated blood may be frozen for later analysis. Very small samples of blood, such as less than about 0.02 mL, may also be analyzed.
(§2) An initial reading is made of the levels of signaling materials in the sample prior to any stress being imposed. The mixture of compound A and blood D is then exposed to an initial stress B. A suitable stress would be physical shear stress produced by the administering syringe and/or a rotating magnetic stirrer. The sensor within the cell E then determines a drop in concentration of signaling materials, which is presumably brought on by the addition of stress B. Generally, this drop in signaling materials concentration yields the value of BOX, which is correlated to the ability of the system to incorporate signaling materials for transport. Following this drop, any rise in concentration of signaling materials yields the value of ROX, which correlates to the capacity of the system to provide a reservoir of signaling materials.
The sensor of the testing apparatus preferably includes two or more sensors—one may be a membrane-based oxygen electrode 22, such as a polarographic Clark oxygen electrode, which measures O2, NO, H2S and other signaling materials that are unbound and can thus permeate through the membrane. In polarographic sensors, an anode, which is polarized, and a cathode are immersed in an electrolyte, into which oxygen and other signaling materials, permeates through the membrane. The anode/cathode pair causes current to flow in direct proportion to the amount of signaling material, such as oxygen, entering the system. The magnitude of the current thus directly correlates to the amount of signaling material entering the probe or sensor. It would be apparent that a membrane-based sensor necessarily depletes the sample of the material being tested as a result of consumption, yet the level of material consumed by the sensor is considered herein to be of an order of magnitude as to be insignificant for practical purposes.
The other sensor 24 or probe may be an optical fluorescence dissolved oxygen analyzer, such as an Ocean Optics ruthenium-coated fiber optical light emitting diode (LED) probe, and can also include other suitable light based devices, including a laser (hereinafter referred to collectively as an “optical sensor”), which determines an amount of value for O2 and the bundled O2 reservoir (ROXO2). Other sensors, such as chip-based sensors, may also be used on the basis of price, convenience, and sensitivity to new signaling and reactive substances.
As used herein, “ROXO2” is determinable O2 reservoir, and “ROXNO” is determinable NO reservoir. When bundled by the blood, and, in particular, the white blood cells, which are preparing signaling materials for use by the body, ROXO2 and ROXNO are unable to travel through the membrane sensor. However, after a BOX event occurs, increased levels of signaling materials in the sample, as determined by either the membrane or optical sensor, which tend to track each other, yield amounts of ROXO2 and ROXNO. […]

bovine blood standard = assay type: cell-based
Source text: as §1
as §2, with “Following this drop, any rise in concentration of signaling materials yields the value of ROX, which correlates to the capacity of the system to provide a reservoir of signaling materials.” left out
The other sensor 24 or probe may be an optical fluorescence dissolved oxygen analyzer, such as an Ocean Optics ruthenium-coated fiber optical light emitting diode (LED) probe, and can also include other suitable light based devices, including a laser (hereinafter referred to collectively as an “optical sensor”), which determines an amount of value for O2 and the bundled O2 reservoir (ROXO2). […]
Between these two or more sensors, therefore, the testing provides a reading for O2, NO, ROXO2, and NO that is in a bundled reservoir (ROXNO), as shown in FIGS. 6 and 7. […] Thus, the readings from the membrane probe and the optical probe together provide a total concentration of BOX and ROX (ROXO2+ROXNO) in the sample after exposure to physical stress B. Also, the slopes of the curves in FIGS. 6 and 7 yield valuable information with respect to the rates of reaction of these components. […]

| Increases ROXO2 by (bovine blood standard) [%] | Lowers BOX by (bovine blood standard) | Lowers ROXNO by (bovine blood standard) [%] | Compound | effect on ROX and BOX (human blood) | effect on ROX and BOX (human blood; listed as borate eye wash) | BOX (human blood) | ROX (human blood) | ROXNO (human blood) | ROXO2 (human blood) | release of NO (human blood; final run of FIG. 6, human blood) | rise of NO (human blood; in 2 seconds, human blood) |
| --- | --- | --- | --- | --- | --- | --- | --- | --- | --- | --- | --- |
| – | – | – | borate | increases of BOX and ROX | affect ROX and BOX | 41% of air saturation | 79% of air saturation | 31% of air saturation | 27% of air saturation | – | – |
| 10 | Lowers BOX by 8% | 25 | acid-citrate-dextrose [ACD] | – | – | – | – | – | – | – | – |
| – | – | – | CC(=O)Oc1ccccc1C(=O)O [Aspirin, aspirin] | affect ROX and BOX | – | 35% of air saturation | 74% of air saturation | 34% of air saturation | 29% of air saturation | very rapid releases of NO | a 37% rise |
